In one assay the target is T1, PIP4K2B (Homo sapiens, UniProt P78356).
T1 construct: made in house; host or cells: E. coli
T1 sequence (P78356 1-416): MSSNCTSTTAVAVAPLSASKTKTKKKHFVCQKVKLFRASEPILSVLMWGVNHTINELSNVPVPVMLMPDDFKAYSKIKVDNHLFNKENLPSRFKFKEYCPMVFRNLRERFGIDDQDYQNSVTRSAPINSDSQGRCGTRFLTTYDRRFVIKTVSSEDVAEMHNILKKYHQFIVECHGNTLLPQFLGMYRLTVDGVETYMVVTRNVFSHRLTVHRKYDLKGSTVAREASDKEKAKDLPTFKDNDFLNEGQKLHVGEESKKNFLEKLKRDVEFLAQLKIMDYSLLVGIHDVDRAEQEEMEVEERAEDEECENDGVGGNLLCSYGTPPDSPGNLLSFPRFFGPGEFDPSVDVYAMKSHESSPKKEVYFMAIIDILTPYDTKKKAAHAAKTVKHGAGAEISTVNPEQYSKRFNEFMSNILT
Put plainly: Trans-FI P kinase assay PIP4K2B (Table 4). The following applies: compounds listed under IC50 bins; read-out: Trans-FI P kinase assays: PIP4K2B IC50. The class given is biochemical. From the text:
GST tagged PIP4KtypeIIA and B enzymes were overexpressed in E. Coli and purified to >80% homogeneity. Phosphatidyl inositol-5-phosphate (PI5P, Cat. #850152, Avanti Polar Lipids Inc.) was used as the lipid substrate and phosphatidyl ethanolamine (DOPE 18:1, Cat. #850725, Avanti Polar Lipids Inc.) was used as the carrier lipid for assays. Ultrapure ATP and GTP was purchased from Bellbrooke Labs. ADP Glo reagents were obtained from Promega. Transcreener FI reagent was obtained from Bellbrooke labs.
GST-tagged PIP4KtypeIIB (3.4 μL, 2.77 mg/mL) was diluted to 5 mL using HNE buffer to yield 5× enzyme stock (25 nM)
Lipid Preparation: In a 10 mL pyrex glass vial, […] were suspended in 2.5 mL of HEPES buffer mix and 2.5 mL of H:E buffer. The contents were mixed and sonicated for 3 min to yield a translucent lipid stock.
Compound Preparation: Compounds were stored as 5 mM stocks in neat DMSO as room temperature in glass vials. 5 mM stocks were diluted to 2 mM and then serially diluted (3×) in neat DMSO in 96 well polypropylene plates. From the serially diluted stocks, 3 μL was delivered into 250 μL of 25% DMSO (in water) to generate 5× compound stocks. Typically, the highest compound conc. was 24 μM.
The assay volume was kept at 25 μL. To each well of the reaction plate, 10 μL of lipid stock (1:1 ratio PI5P:DOPE) was delivered. This was followed by the addition of 5 μL of compound in 25% DMSO. Then, to each well, 5 μL of 25 nM (5×) typeIIB enzyme was delivered. The contents were mixed well and incubated for 1 h at 27° C. After 1 h, reaction was initiated by adding 5 μL of 500 μM GTP and the contents were mixed well with a multi-channel pipetteman. The final concentration of the reagents are as follows: 50 mM HEPES, pH 7.3, 10 mM MgCl2, 20 mM NaCl, 0.01% v/v triton-X100, 5% DMSO, 100 μM GTP, 80 μM (2 μg) PI5P, 2 μg DOPE, and 5 nM PIP4KIIB Typically, the highest conc. of compounds was 4.8 μM and the lowest conc. was 0.
After 2 h, the reaction was quenched by adding 25 μL of transcreener FI reagent. The contents were incubated at rt for 1 h and the Fluorescence (Ex: 584 Em: 623) was read using Molecular Devices Paradigm plate reader. […] The blanks were averaged and subtracted from all other wells. Using a calibration curve, RFU was converted to μM GDP (product). IC50 was calculated by plotting the residual activity (expressed as % No inhibitor control) vs. log [Inh. conc.]

For a further assay, the target named is T2, PIP4K2A (Homo sapiens, UniProt P48426).
T2 sequence (P48426 1-406): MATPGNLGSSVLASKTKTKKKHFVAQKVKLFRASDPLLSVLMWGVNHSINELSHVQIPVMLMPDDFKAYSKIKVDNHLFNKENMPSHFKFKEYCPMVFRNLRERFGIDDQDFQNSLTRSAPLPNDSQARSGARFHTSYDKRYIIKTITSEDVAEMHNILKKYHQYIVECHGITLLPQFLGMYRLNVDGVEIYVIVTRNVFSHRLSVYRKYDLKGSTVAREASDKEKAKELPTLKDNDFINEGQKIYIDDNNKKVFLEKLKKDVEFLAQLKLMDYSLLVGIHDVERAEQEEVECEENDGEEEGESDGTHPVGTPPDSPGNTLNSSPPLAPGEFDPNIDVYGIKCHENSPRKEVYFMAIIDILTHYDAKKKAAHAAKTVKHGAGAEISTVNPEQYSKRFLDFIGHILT
The assay is described as follows: Kinase Assay PIP4K2 A (Table 2). The class given is biochemical. Further details: 4 nM PIP4K2A (full length protein, SignalChem); purchased SignalChem. As to conditions: compounds listed under IC50 bins. The procedure, abridged: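 ADP-Glo luminescent read-out after 1 h room-temperature kinase reaction, started with 60 μM ATP solution following 15 min compound pre-incubation. Enzyme/substrate mix: 4 nM full-length PIP4K2A plus 100 μM PI(5)P diC8; buffer MOPS pH 7.2 with 25 mM MgCl2 and Tween 20. IC50 from 10-point, 3-fold titrations normalized to DMSO.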

A value given as a limit tells only on which side of the number the result lay.

For the compound `Cn1cnnc1N1CCN(c2ccc(Nc3cnc4c(c3)N3C(=O)CC[C@H]3CO4)nc2)CC1` [Example 275, (S)-2-((5-(4-(4-methyl-4H-1,2,4-triazol-3-yl)piperazin-1-yl)pyridin-2-yl)amino)-6,6a,7,8-tetrahydro-9H-pyrido[2,3-b]pyrrolo[1,2-d][1,4]oxazin-9-one], the figures for the 50% inhibitory concentration (IC50) at PIP4K2B and at PIP4K2A were 10 to 100 nM and 100 to 1000 nM, respectively.

In the case of `Cc1ccnnc1-c1ccc(-c2ccc(Nc3cnc4c(c3)N3C(=O)CC[C@H]3CO4)nc2)cc1` [Example 276, (S)-2-((5-(4-(4-methylpyridazin-3-yl)phenyl)pyridin-2-yl)amino)-6,6a,7,8-tetrahydro-9H-pyrido[2,3-b]pyrrolo[1,2-d][1,4]oxazin-9-one], the IC50 on PIP4K2B and against PIP4K2A was 1 to 10 nM in each case.

Consider `Cc1cnoc1-c1ccc(-c2ccc(Nc3cnc4c(c3)N3C(=O)CC[C@H]3CO4)nc2)cc1` [Example 277, (S)-2-((5-(4-(4-methylisoxazol-5-yl)phenyl)pyridin-2-yl)amino)-6,6a,7,8-tetrahydro-9H-pyrido[2,3-b]pyrrolo[1,2-d][1,4]oxazin-9-one], for which the concentration for half-maximal inhibition (IC50) is 10 to 100 nM at PIP4K2B and 1 to 10 nM against PIP4K2A.

With `Cc1cnnn1-c1ccc(-c2cnc(Nc3cnc4c(c3)N3C(=O)CC[C@H]3CO4)nc2C(C)C)cc1` [Example 278, (S)-2-((4-isopropyl-5-(4-(5-methyl-1H-1,2,3-triazol-1-yl)phenyl)pyrimidin-2-yl)amino)-6,6a,7,8-tetrahydro-9H-pyrido[2,3-b]pyrrolo[1,2-d][1,4]oxazin-9-one], the 50% inhibitory concentration (IC50) on PIP4K2B is 1 to 10 nM; at PIP4K2A, not above 1 nM.

For the compound `CN1CC2(CCN(c3ccc(Nc4cnc5c(c4)N4C(=O)CC[C@H]4CO5)nc3)CC2)OC1=O` [Example 279, (S)-2-((5-(3-methyl-2-oxo-1-oxa-3,8-diazaspiro[4.5]decan-8-yl)pyridin-2-yl)amino)-6,6a,7,8-tetrahydro-9H-pyrido[2,3-b]pyrrolo[1,2-d][1,4]oxazin-9-one], the IC50 at PIP4K2B and at PIP4K2A was more than 1000 nM in each case.

In the case of `O=C1CCCN1c1ccc(-c2cnc(Nc3cnc4c(c3)N3C(=O)CC[C@H]3CO4)nc2N2CCOCC2)cc1` [Example 280, (S)-2-((4-morpholino-5-(4-(2-oxopyrrolidin-1-yl)phenyl)pyrimidin-2-yl)amino)-6,6a,7,8-tetrahydro-9H-pyrido[2,3-b]pyrrolo[1,2-d][1,4]oxazin-9-one], the values for the IC50 at PIP4K2B and against PIP4K2A were 1 to 10 nM and not above 1 nM, respectively.

`CN1CCN(c2nc(Nc3cnc4c(c3)N3C(=O)CC[C@H]3CO4)ncc2-c2ccc(N3CCCC3=O)cc2)CC1` [Example 281, (S)-2-((4-(4-methylpiperazin-1-yl)-5-(4-(2-oxopyrrolidin-1-yl)phenyl)pyrimidin-2-yl)amino)-6,6a,7,8-tetrahydro-9H-pyrido[2,3-b]pyrrolo[1,2-d][1,4]oxazin-9-one]: the results for the concentration for half-maximal inhibition (IC50) at PIP4K2B and on PIP4K2A were 10 to 100 nM and 1 to 10 nM, respectively.

As for `COCc1cc(Nc2cnc3c(c2)N2C(=O)CC[C@H]2CO3)ncc1-c1ccc(-c2nocc2C)cc1` [Example 282, (S)-2-((4-(methoxymethyl)-5-(4-(4-methylisoxazol-3-yl)phenyl)pyridin-2-yl)amino)-6,6a,7,8-tetrahydro-9H-pyrido[2,3-b]pyrrolo[1,2-d][1,4]oxazin-9-one], the half-maximal inhibitory concentration (IC50) is 10 to 100 nM on PIP4K2B and 1 to 10 nM on PIP4K2A.

For `Cc1conc1-c1ccc(-c2ccc(Nc3cnc4c(c3)N3C(=O)CC[C@H]3CO4)nc2)cc1` [Example 283, (S)-2-((5-(4-(4-methylisoxazol-3-yl)phenyl)pyridin-2-yl)amino)-6,6a,7,8-tetrahydro-9H-pyrido[2,3-b]pyrrolo[1,2-d][1,4]oxazin-9-one], the 50% inhibitory concentration (IC50) was in the range of 10 to 100 nM at PIP4K2B and 1 to 10 nM on PIP4K2A.

As for `O=C1CCCN1c1ccc(-c2cnc(Nc3cnc4c(c3)N3C(=O)CC[C@H]3CO4)cc2OC2CCC2)cc1` [Example 284, (S)-2-((4-cyclobutoxy-5-(4-(2-oxopyrrolidin-1-yl)phenyl)pyridin-2-yl)amino)-6,6a,7,8-tetrahydro-9H-pyrido[2,3-b]pyrrolo[1,2-d][1,4]oxazin-9-one], the IC50 on PIP4K2B is 1 to 10 nM; against PIP4K2A it was not above 1 nM.

Take `Cn1cnnc1-c1ccc(-c2cnc(Nc3cnc4c(c3)N3C(=O)CC[C@H]3CO4)cc2C2CC2)cc1` [Example 285, (S)-2-((4-cyclopropyl-5-(4-(4-methyl-4H-1,2,4-triazol-3-yl)phenyl)pyridin-2-yl)amino)-6,6a,7,8-tetrahydro-9H-pyrido[2,3-b]pyrrolo[1,2-d][1,4]oxazin-9-one]: the IC50 at PIP4K2B and against PIP4K2A was 10 to 100 nM each time.

As for `COC1CN(c2nc(Nc3cnc4c(c3)N3C(=O)CC[C@H]3CO4)ncc2-c2ccc(N3CCCC3=O)cc2)C1` [Example 286, (S)-2-((4-(3-methoxyazetidin-1-yl)-5-(4-(2-oxopyrrolidin-1-yl)phenyl)pyrimidin-2-yl)amino)-6,6a,7,8-tetrahydro-9H-pyrido[2,3-b]pyrrolo[1,2-d][1,4]oxazin-9-one], the IC50 at PIP4K2B and on PIP4K2A was 1 to 10 nM throughout.

In the case of `COc1nc(Nc2cnc3c(c2)N2C(=O)CC[C@H]2CO3)ncc1-c1ccc(-c2nncn2C)cc1` [Example 287, (S)-2-((4-methoxy-5-(4-(4-methyl-4H-1,2,4-triazol-3-yl)phenyl)pyrimidin-2-yl)amino)-6,6a,7,8-tetrahydro-9H-pyrido[2,3-b]pyrrolo[1,2-d][1,4]oxazin-9-one], the IC50 at PIP4K2B and at PIP4K2A was 1 to 10 nM in each case.

As for `COc1nc(Nc2cnc3c(c2)N2C(=O)CC[C@H]2CO3)ncc1-c1ccc(-n2nncc2C)cc1` [Example 288, (S)-2-((4-methoxy-5-(4-(5-methyl-1H-1,2,3-triazol-1-yl)phenyl)pyrimidin-2-yl)amino)-6,6a,7,8-tetrahydro-9H-pyrido[2,3-b]pyrrolo[1,2-d][1,4]oxazin-9-one], the concentration for half-maximal inhibition (IC50) was 1 to 10 nM at PIP4K2B and not above 1 nM against PIP4K2A.

In the case of `Cc1cnnn1-c1ccc(-c2ccc(Nc3cnc4c(c3)N3C(=O)CC[C@H]3CO4)nc2)cc1` [Example 289, (S)-2-((5-(4-(5-methyl-1H-1,2,3-triazol-1-yl)phenyl)pyridin-2-yl)amino)-6,6a,7,8-tetrahydro-9H-pyrido[2,3-b]pyrrolo[1,2-d][1,4]oxazin-9-one], the half-inhibitory concentration (IC50) on PIP4K2B and against PIP4K2A was 1 to 10 nM throughout.

`Cn1cnnc1-c1ccc(-c2ccc(Nc3cnc4c(c3)N3C(=O)CC[C@H]3CO4)nc2)cc1` [Example 291, (S)-2-((5-(4-(4-methyl-4H-1,2,4-triazol-3-yl)phenyl)pyridin-2-yl)amino)-6,6a,7,8-tetrahydro-9H-pyrido[2,3-b]pyrrolo[1,2-d][1,4]oxazin-9-one]: the IC50 at PIP4K2B and at PIP4K2A was 10 to 100 nM each time.

The IC50 is the point on the concentration scale where inhibition reaches its midpoint.

For the origin of these results see patent US11667651B2, “Aminopyridine derivatives as phosphatidylinositol phosphate kinase inhibitors” (HiberCell, Inc., priority 2017, dated 2023).
